Earlier results, collected in article PMC12181400, “Leveraging viral genome sequences and machine learning models for identification of potentially selective antiviral agents” (Communications Chemistry, 2025).
Structures can show the parent of a compound that is named as a salt. Where two headings read alike, the source gives them in different places.

Columns and labels:
Details in all cases: cited from earlier work
[1] = tested on: cell viability (tox21-ap1-agonist-p1)
[2] = tested on: cell viability (tox21-ar-mda-kb2-luc-agonist-p3)
[3] = tested on: cell viability (tox21-ar-mda-kb2-luc-antagonist-p2)
[4] = tested on: cell viability (tox21-are-bla-p1)
[5] = tested on: cell viability (tox21-car-agonist-p1)
[6] = tested on: cell viability (tox21-car-antagonist-p1)
[7] = curve rank −9 to 9, 0 = inactive, ref NCATS Tox21 public data browser

Cc1cc(CC(=O)[O-])n(C)c1C(=O)c1ccc(Cl)cc1.[Na+] [Sodium zomepirac]
0: tox21-ap1-agonist-p1-viability (curve rank) [1, 7] | tox21-ar-mda-kb2-luc-agonist-p3-viability (curve rank) [2, 7] | tox21-ar-mda-kb2-luc-antagonist-p2-viability (curve rank) [3, 7] | tox21-are-bla-p1-viability (curve rank) [4, 7] | tox21-car-agonist-p1-viability (curve rank) [5, 7] | tox21-car-antagonist-p1-viability (curve rank) [6, 7]

CC(N/C(=N\C#N)Nc1ccncc1)C(C)(C)C (centres unmarked) [Pinacidil monohydrate]
0: tox21-ap1-agonist-p1-viability (curve rank) [1] | tox21-ar-mda-kb2-luc-agonist-p3-viability (curve rank) [2] | tox21-ar-mda-kb2-luc-antagonist-p2-viability (curve rank) [3] | tox21-are-bla-p1-viability (curve rank) [4] | tox21-car-agonist-p1-viability (curve rank) [5] | tox21-car-antagonist-p1-viability (curve rank) [6]

CC(=O)Nc1cc([As](=O)(O)O)ccc1O [Acetarsol]
0: tox21-ap1-agonist-p1-viability (curve rank) [1, 7] | tox21-ar-mda-kb2-luc-agonist-p3-viability (curve rank) [2, 7] | tox21-ar-mda-kb2-luc-antagonist-p2-viability (curve rank) [3, 7] | tox21-are-bla-p1-viability (curve rank) [4, 7] | tox21-car-agonist-p1-viability (curve rank) [5, 7] | tox21-car-antagonist-p1-viability (curve rank) [6, 7]

CC(C)NNC(=O)c1ccncc1 [Iproniazid sulfate]
0: tox21-ap1-agonist-p1-viability (curve rank) [1] | tox21-ar-mda-kb2-luc-agonist-p3-viability (curve rank) [2] | tox21-ar-mda-kb2-luc-antagonist-p2-viability (curve rank) [3] | tox21-are-bla-p1-viability (curve rank) [4] | tox21-car-agonist-p1-viability (curve rank) [5] | tox21-car-antagonist-p1-viability (curve rank) [6]

CC(Cc1ccccc1)(NC(=O)CN)c1ccccc1 (centres unmarked) [Remacemide hydrochloride]
0: tox21-ap1-agonist-p1-viability (curve rank) [1, 7] | tox21-ar-mda-kb2-luc-agonist-p3-viability (curve rank) [2, 7] | tox21-ar-mda-kb2-luc-antagonist-p2-viability (curve rank) [3, 7] | tox21-are-bla-p1-viability (curve rank) [4, 7] | tox21-car-agonist-p1-viability (curve rank) [5, 7] | tox21-car-antagonist-p1-viability (curve rank) [6, 7]

CC(=O)Nc1nnc(S(N)(=O)=O)s1 [Acetazolamide]
0: tox21-ap1-agonist-p1-viability (curve rank) [1] | tox21-ar-mda-kb2-luc-agonist-p3-viability (curve rank) [2] | tox21-ar-mda-kb2-luc-antagonist-p2-viability (curve rank) [3] | tox21-are-bla-p1-viability (curve rank) [4] | tox21-car-agonist-p1-viability (curve rank) [5] | tox21-car-antagonist-p1-viability (curve rank) [6]

Clc1cccc(Cl)c1N=C1NCCN1 [Clonidine]
0: tox21-ap1-agonist-p1-viability (curve rank) [1] | tox21-ar-mda-kb2-luc-agonist-p3-viability (curve rank) [2] | tox21-ar-mda-kb2-luc-antagonist-p2-viability (curve rank) [3] | tox21-are-bla-p1-viability (curve rank) [4] | tox21-car-agonist-p1-viability (curve rank) [5] | tox21-car-antagonist-p1-viability (curve rank) [6]

O=C(Cn1ccnc1[N+](=O)[O-])NCCO [Etandazole]
0: tox21-ap1-agonist-p1-viability (curve rank) [1] | tox21-ar-mda-kb2-luc-agonist-p3-viability (curve rank) [2] | tox21-ar-mda-kb2-luc-antagonist-p2-viability (curve rank) [3] | tox21-are-bla-p1-viability (curve rank) [4] | tox21-car-agonist-p1-viability (curve rank) [5] | tox21-car-antagonist-p1-viability (curve rank) [6]

c1ccc2c(CC3=NCCN3)cccc2c1 [Naphazoline hydrochloride]
0: tox21-ap1-agonist-p1-viability (curve rank) [1] | tox21-ar-mda-kb2-luc-agonist-p3-viability (curve rank) [2] | tox21-ar-mda-kb2-luc-antagonist-p2-viability (curve rank) [3] | tox21-are-bla-p1-viability (curve rank) [4] | tox21-car-agonist-p1-viability (curve rank) [5] | tox21-car-antagonist-p1-viability (curve rank) [6]

CN(C(=O)c1c(O)c2ccccc2n(C)c1=O)c1ccccc1 [Roquinimex]
0: tox21-ap1-agonist-p1-viability (curve rank) [1] | tox21-ar-mda-kb2-luc-agonist-p3-viability (curve rank) [2] | tox21-ar-mda-kb2-luc-antagonist-p2-viability (curve rank) [3] | tox21-are-bla-p1-viability (curve rank) [4] | tox21-car-agonist-p1-viability (curve rank) [5] | tox21-car-antagonist-p1-viability (curve rank) [6]

NC(Cc1ccc(Cl)cc1)C(=O)O (centres unmarked) [Fenclonine]
0: tox21-ap1-agonist-p1-viability (curve rank) [1] | tox21-ar-mda-kb2-luc-agonist-p3-viability (curve rank) [2] | tox21-ar-mda-kb2-luc-antagonist-p2-viability (curve rank) [3] | tox21-are-bla-p1-viability (curve rank) [4] | tox21-car-agonist-p1-viability (curve rank) [5] | tox21-car-antagonist-p1-viability (curve rank) [6]

CCC(C)(CN(C)C)OC(=O)c1ccccc1.Cl (centres unmarked) [Amylocaine hydrochloride]
0: tox21-car-antagonist-p1-viability (curve rank) [6, 7]

CCN(Cc1ccncc1)C(=O)C(CO)c1ccccc1 (centres unmarked) [Tropicamide]
0: tox21-ap1-agonist-p1-viability (curve rank) [1, 7] | tox21-are-bla-p1-viability (curve rank) [4, 7] | tox21-car-agonist-p1-viability (curve rank) [5, 7] | tox21-car-antagonist-p1-viability (curve rank) [6, 7]
